From article PMC4822253, “Inhibition of BMP and of TGFβ receptors downregulates expression of XIAP and TAK1 leading to lung cancer cell death” (Molecular Cancer, 2016) come the findings set out here.

This assay has as its system lung cancer cell lines H157, A549, H1299, H727, U1752. As to the kind of experiment: Western blot of Id1 in panel of lung cancer cell lines. It counts as cell-based. The note with it: 1 μM; 48 h; all cell lines of the panel. As to the method: Total cellular protein was prepared using RIPA buffer containing a protease inhibitor cocktail and protein concentration was measured using the BCA assay as described. In brief, protein was analyzed by SDS-PAGE, transferred to nitrocellulose (Schleicher and Schuell, Keene, NH). After blocking, the blots were incubated overnight at 4 °C with the appropriate primary antibody in Tris-buffered saline with 1 % Tween (TBST) and 5 % BSA. Secondary antibodies were applied for 1 h at room temperature. Specific proteins were detected using the enhanced chemiluminescence system (Amersham, Arlington Heights, IL). The primary antibodies that were used were rabbit monoclonal anti-pSmad 1/5, rabbit monoclonal anti-pSmad2, rabbit monoclonal anti-Smad2, rabbit monoclonal anti-pTAK1, rabbit monoclonal XIAP, rabbit anti-monoclonal p-p65, rabbit monoclonal anti-activated caspase-3, rabbit polyclonal anti-BMPRII, and rabbit monoclonal anti-EGR-1 (Cell signaling Technology, Danvers MA), Rabbit monoclonal anti-TAK1 (Invitrogen, Grand Island NY), rabbit anti-actin, an affinity isolated antigen specific antibody (Sigma, Saint Louis, MO), rabbit monoclonal anti-Id1 and rabbit monoclonal anti-Id3 (Calbioreagents, San Mateo, CA), rabbit polyclonal anti-GAPDH (Sigma, St. Louis, MO) and rabbit polyclonal pMEK-1/2 (Cell Signaling, Danvers MA).
Additional file 1: Figure S1. […]
For orientation: Immunoblotting shows a protein as a band on a membrane.

In the case of `c1ccc2c(-c3cnn4cc(-c5ccc(OCCN6CCOCC6)cc5)cnc34)ccnc2c1` [DMH2], the “expression of Id1” value is listed as “decreased”.
